Test results published in paper PMC7265341, “Quantifying CDK inhibitor selectivity in live cells” (Nature Communications, 2020).
Read-outs that look alike come from different tables or passages of the source.

Columns and labels:
CDK8/Cyclin C = CDK8/Cyclin C (Homo sapiens, UniProt P49336); assay: NanoBRET live-cell target engagement, NanoLuc-CDK8/Cyclin C in HEK-293; type: binding; conditions: CDK8/C, read-out: Inhibition at 10µM (%)
CDK3/Cyclin E1 = CDK3/Cyclin E1 (Homo sapiens, UniProt Q00526); assay: NanoBRET live-cell target engagement, CDK3-NanoLuc/Cyclin E1 in HEK-293; type: binding; conditions: CDK3/E1, read-out: Inhibition at 10µM (%)
CDK11A/Cyclin L2 = biological target: T1, CDK11A/Cyclin L2 (Homo sapiens, UniProt Q9UQ88); assay: NanoBRET live-cell target engagement, CDK11A-NanoLuc/Cyclin L2 in HEK-293; type: binding; conditions: CDK11a/L2; for IC50: read-out: IC50; for inhibition at 10 µM: read-out: Inhibition at 10µM (%)
T1 sequence (Q9UQ88 1-783): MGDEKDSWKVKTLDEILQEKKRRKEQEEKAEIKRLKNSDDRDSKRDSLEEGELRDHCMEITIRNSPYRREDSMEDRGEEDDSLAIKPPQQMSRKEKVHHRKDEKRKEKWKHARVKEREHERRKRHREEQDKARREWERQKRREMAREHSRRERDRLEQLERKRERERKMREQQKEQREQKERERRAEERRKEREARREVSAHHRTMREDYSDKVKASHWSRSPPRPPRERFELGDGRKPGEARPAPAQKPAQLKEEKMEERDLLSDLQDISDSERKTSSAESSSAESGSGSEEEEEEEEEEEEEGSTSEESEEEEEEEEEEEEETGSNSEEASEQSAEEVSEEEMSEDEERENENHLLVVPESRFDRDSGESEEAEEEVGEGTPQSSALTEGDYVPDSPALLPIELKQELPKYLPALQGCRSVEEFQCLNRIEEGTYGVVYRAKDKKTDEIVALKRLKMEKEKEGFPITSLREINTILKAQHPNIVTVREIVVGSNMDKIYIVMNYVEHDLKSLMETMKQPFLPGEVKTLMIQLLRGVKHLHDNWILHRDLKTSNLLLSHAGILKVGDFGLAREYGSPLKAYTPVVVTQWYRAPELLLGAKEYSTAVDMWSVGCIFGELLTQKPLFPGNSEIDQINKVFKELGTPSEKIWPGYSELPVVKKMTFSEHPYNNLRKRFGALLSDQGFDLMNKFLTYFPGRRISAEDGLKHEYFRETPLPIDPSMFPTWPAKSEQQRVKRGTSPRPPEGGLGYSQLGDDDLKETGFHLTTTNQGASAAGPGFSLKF

CDK19/Cyclin C = CDK19/Cyclin C (Homo sapiens, UniProt Q9BWU1); assay: NanoBRET live-cell target engagement, NanoLuc-CDK19/Cyclin C in HEK-293; conditions: read-out: Inhibition at 10µM (%), CDK19/C
CDK6/Cyclin D1 = CDK6/Cyclin D1 (Homo sapiens, UniProt Q00534); assay: NanoBRET live-cell target engagement, NanoLuc-CDK6/Cyclin D1 in HEK-293; type: binding; conditions: CDK6/D1, read-out: Inhibition at 10µM (%)
CDK20/Cyclin H = CDK20/Cyclin H (Homo sapiens, UniProt Q8IZL9); assay: NanoBRET live-cell target engagement, NanoLuc-CDK20/Cyclin H in HEK-293; type: binding; conditions: CDK20/H, read-out: Inhibition at 10µM (%)
CDK1/Cyclin E1 = CDK1/Cyclin E1 (Homo sapiens, UniProt P06493); assay: NanoBRET live-cell target engagement, CDK1-NanoLuc/Cyclin E1 in HEK-293; type: binding; conditions: CDK1/E1, read-out: Inhibition at 10µM (%)
CDK5/CDK5R1 = CDK5/CDK5R1 (Homo sapiens, UniProt Q00535); assay: NanoBRET live-cell target engagement, CDK5-NanoLuc/CDK5R1 in HEK-293; type: binding; conditions: CDK5/CDK5R1, read-out: Inhibition at 10µM (%)
CDK10/Cyclin L2 = CDK10/Cyclin L2 (Homo sapiens, UniProt Q15131); assay: NanoBRET live-cell target engagement, CDK10-NanoLuc/Cyclin L2 in HEK-293; conditions: for IC50: IC50 (nM), CDK10/L2; for inhibition at 10 µM: read-out: Inhibition at 10µM (%), CDK10/L2
CDK7 = CDK7 (Homo sapiens, UniProt P50613); assay: NanoBRET live-cell target engagement, NanoLuc-CDK7 in HEK-293; type: binding; conditions: CDK7; for IC50: read-out: IC50; for inhibition at 10 µM: read-out: Inhibition at 10µM (%)
CDK9/Cyclin K = CDK9/Cyclin K (Homo sapiens, UniProt P50750); assay: NanoBRET live-cell target engagement, NanoLuc-CDK9/Cyclin K in HEK-293; type: binding; conditions: CDK9/K; for inhibition at 10 µM: read-out: Inhibition at 10µM (%)
CDK17/Cyclin Y = CDK17/Cyclin Y (Homo sapiens, UniProt Q00537); assay: NanoBRET live-cell target engagement, CDK17-NanoLuc/Cyclin Y in HEK-293; type: binding; conditions: CDK17/Y; for IC50: read-out: IC50; for inhibition at 10 µM: read-out: Inhibition at 10µM (%)
CDK18/Cyclin Y = CDK18/Cyclin Y (Homo sapiens, UniProt Q07002); assay: NanoBRET live-cell target engagement, CDK18-NanoLuc/Cyclin Y in HEK-293; type: binding; conditions: for IC50: read-out: IC50
CDK16/Cyclin Y = CDK16/Cyclin Y (Homo sapiens, UniProt Q00536); assay: NanoBRET live-cell target engagement, CDK16-NanoLuc/Cyclin Y in HEK-293; type: binding; conditions: CDK16/Y; for IC50: read-out: IC50; for inhibition at 10 µM: read-out: Inhibition at 10µM (%)
CDK15/Cyclin Y = CDK15/Cyclin Y (Homo sapiens, UniProt Q96Q40); assay: NanoBRET live-cell target engagement, NanoLuc-CDK15/Cyclin Y in HEK-293; type: binding; conditions: CDK15/Y; for IC50: read-out: IC50; for inhibition at 10 µM: read-out: Inhibition at 10µM (%)
CDK2/Cyclin E1 = CDK2/Cyclin E1 (Homo sapiens, UniProt P24941); assay: NanoBRET live-cell target engagement, CDK2-NanoLuc/Cyclin E1 in HEK-293; type: binding; conditions: CDK2/E1, read-out: Inhibition at 10µM (%)
CDK4/Cyclin D1 = CDK4/Cyclin D1 (Homo sapiens, UniProt P11802); assay: NanoBRET live-cell target engagement, NanoLuc-CDK4/Cyclin D1 in HEK-293; type: binding; conditions: CDK4/D1, read-out: Inhibition at 10µM (%)
CDK11B/Cyclin L2 = CDK11B/Cyclin L2 (Homo sapiens, UniProt P21127); assay: NanoBRET live-cell target engagement, CDK11B-NanoLuc/Cyclin L2 in HEK-293; type: binding; conditions: CDK11b/L2; for IC50: read-out: IC50; for inhibition at 10 µM: read-out: Inhibition at 10µM (%)
CDK14/Cyclin Y = CDK14/Cyclin Y (Homo sapiens, UniProt O94921); assay: NanoBRET live-cell target engagement, CDK14-NanoLuc/Cyclin Y in HEK-293; type: binding; conditions: CDK14/Y, read-out: Inhibition at 10µM (%)

Sequence of CDK1/Cyclin E1 (P06493 whole entry): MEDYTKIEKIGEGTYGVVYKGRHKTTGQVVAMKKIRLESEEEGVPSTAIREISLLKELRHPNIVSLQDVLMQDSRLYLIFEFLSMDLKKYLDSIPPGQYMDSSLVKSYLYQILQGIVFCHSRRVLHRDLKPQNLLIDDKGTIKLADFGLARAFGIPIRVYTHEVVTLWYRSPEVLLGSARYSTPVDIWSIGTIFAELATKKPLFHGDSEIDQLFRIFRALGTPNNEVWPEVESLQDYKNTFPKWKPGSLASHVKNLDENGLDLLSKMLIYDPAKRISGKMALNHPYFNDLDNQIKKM
Sequence of CDK1/Cyclin E1 (P24864 whole entry partner): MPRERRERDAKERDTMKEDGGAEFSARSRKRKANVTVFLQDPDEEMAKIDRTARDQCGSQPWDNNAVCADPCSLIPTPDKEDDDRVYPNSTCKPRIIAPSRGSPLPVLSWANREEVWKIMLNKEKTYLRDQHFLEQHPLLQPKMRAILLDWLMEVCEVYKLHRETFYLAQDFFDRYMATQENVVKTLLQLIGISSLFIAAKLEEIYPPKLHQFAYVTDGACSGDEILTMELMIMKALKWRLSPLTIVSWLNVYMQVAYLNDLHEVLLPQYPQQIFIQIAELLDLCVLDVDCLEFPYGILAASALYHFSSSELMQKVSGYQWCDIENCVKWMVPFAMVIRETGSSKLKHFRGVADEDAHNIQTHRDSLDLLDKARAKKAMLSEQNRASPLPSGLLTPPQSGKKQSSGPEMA
Sequence of CDK4/Cyclin D1 (P11802 whole entry): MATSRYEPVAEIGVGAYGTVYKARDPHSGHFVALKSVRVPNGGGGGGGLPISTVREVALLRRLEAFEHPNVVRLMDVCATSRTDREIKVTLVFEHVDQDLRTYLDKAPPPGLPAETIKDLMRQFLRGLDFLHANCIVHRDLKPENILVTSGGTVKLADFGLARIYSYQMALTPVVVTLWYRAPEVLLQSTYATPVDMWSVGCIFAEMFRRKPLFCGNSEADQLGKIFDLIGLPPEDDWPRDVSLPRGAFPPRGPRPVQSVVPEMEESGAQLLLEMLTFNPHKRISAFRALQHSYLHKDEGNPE
Sequence of CDK4/Cyclin D1 (P24385 whole entry partner): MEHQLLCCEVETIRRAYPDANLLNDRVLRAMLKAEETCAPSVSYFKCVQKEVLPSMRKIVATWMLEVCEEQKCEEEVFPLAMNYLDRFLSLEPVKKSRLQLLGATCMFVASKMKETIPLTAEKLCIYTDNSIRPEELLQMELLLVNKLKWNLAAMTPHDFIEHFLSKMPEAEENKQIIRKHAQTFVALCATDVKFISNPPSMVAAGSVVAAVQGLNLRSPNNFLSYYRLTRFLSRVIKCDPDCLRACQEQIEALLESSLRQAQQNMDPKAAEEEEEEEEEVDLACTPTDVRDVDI
Sequence of CDK3/Cyclin E1 (Q00526 whole entry): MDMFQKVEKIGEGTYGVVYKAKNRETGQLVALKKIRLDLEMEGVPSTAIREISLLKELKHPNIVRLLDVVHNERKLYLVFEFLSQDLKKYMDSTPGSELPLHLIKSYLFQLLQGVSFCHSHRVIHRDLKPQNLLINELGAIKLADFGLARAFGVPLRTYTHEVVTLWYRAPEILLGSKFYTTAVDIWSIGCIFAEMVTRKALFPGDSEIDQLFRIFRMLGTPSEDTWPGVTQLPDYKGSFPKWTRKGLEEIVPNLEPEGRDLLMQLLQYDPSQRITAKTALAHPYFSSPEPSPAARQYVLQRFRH
Sequence of CDK3/Cyclin E1 (P24864 whole entry partner): as the sequence (P24864 whole entry partner) above
Sequence of CDK7 (P50613 whole entry): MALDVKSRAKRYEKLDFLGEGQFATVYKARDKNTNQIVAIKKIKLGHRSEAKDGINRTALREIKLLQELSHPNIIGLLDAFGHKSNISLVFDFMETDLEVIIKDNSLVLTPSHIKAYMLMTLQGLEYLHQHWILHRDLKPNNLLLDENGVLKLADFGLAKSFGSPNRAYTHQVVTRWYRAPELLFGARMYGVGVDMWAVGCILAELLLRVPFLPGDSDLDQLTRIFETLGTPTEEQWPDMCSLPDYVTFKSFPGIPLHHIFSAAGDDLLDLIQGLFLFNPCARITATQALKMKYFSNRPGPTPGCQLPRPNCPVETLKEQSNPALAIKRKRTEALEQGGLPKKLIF
Sequence of CDK16/Cyclin Y (Q00536 whole entry): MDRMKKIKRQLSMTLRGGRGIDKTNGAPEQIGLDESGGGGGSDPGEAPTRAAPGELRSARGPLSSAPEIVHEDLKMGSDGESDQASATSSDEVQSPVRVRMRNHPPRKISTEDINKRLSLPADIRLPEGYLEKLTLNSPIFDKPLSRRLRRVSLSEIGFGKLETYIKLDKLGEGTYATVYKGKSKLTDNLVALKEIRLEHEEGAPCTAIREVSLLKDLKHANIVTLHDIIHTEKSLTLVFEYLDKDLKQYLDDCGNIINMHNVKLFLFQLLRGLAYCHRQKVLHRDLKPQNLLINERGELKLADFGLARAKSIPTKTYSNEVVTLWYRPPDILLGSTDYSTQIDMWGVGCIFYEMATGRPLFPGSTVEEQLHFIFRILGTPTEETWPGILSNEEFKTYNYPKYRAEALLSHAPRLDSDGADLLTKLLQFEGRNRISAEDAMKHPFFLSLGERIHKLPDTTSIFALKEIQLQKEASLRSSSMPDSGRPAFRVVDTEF
Sequence of CDK16/Cyclin Y (Q8ND76 whole entry partner): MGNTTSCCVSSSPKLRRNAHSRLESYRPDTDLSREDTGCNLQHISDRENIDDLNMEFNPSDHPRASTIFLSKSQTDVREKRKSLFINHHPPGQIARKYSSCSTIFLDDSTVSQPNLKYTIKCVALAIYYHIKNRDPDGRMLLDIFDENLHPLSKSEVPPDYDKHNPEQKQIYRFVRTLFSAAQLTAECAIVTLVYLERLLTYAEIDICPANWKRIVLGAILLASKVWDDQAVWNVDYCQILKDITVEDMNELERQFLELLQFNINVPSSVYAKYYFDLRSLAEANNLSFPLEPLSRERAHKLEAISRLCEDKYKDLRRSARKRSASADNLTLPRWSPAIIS
Sequence of CDK11B/Cyclin L2 (P21127 1-782 isoform P21127-2): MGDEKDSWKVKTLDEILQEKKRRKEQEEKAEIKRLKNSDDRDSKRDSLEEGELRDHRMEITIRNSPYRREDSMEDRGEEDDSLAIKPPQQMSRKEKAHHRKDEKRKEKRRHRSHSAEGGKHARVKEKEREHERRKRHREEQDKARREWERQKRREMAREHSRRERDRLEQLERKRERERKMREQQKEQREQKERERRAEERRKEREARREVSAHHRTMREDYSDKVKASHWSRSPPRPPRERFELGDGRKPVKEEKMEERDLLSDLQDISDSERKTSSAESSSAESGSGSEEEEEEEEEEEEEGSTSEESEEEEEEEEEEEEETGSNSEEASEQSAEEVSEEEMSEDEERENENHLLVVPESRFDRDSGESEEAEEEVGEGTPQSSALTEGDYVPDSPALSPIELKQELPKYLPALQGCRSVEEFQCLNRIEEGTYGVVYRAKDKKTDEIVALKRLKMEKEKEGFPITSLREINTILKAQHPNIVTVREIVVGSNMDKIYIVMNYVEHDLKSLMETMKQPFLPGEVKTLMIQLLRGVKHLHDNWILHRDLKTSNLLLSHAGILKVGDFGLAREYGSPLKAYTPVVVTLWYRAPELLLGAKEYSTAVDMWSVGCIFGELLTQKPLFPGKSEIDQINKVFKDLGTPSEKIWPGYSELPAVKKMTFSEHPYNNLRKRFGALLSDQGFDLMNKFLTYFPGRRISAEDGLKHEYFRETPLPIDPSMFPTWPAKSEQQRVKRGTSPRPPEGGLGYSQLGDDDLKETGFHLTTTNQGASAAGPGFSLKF
Sequence of CDK5/CDK5R1 (Q00535 whole entry): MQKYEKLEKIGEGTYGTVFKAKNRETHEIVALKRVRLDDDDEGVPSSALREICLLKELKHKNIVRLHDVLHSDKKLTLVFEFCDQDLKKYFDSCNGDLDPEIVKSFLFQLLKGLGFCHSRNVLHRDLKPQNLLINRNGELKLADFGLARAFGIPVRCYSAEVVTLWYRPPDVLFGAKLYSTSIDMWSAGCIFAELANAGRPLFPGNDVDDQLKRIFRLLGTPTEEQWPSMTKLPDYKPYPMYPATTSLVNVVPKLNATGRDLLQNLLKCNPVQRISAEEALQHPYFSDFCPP
Sequence of CDK5/CDK5R1 (Q15078 whole entry partner): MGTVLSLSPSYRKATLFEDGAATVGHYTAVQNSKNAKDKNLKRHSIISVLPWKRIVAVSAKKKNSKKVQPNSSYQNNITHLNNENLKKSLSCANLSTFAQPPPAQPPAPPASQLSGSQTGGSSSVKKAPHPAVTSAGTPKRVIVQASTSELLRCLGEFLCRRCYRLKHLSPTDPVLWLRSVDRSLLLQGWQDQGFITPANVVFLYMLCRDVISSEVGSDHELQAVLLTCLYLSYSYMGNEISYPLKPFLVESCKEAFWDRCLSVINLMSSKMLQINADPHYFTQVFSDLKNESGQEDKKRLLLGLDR
Sequence of CDK15/Cyclin Y (Q96Q40 whole entry): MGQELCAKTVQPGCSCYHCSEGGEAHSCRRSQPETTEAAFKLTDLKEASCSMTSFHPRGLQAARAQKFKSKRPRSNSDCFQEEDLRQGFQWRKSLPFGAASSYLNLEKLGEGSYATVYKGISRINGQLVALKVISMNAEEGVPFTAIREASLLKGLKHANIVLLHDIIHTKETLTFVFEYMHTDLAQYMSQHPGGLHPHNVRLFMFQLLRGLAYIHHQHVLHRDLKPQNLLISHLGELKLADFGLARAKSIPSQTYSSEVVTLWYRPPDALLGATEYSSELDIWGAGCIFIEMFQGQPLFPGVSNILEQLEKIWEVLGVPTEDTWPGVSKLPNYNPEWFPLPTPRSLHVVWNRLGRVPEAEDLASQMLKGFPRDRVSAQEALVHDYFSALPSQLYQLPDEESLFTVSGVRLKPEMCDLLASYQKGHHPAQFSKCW
Sequence of CDK15/Cyclin Y (Q8ND76 whole entry partner): as the sequence (Q8ND76 whole entry partner) above

SMILES: COc1ccc(F)cc1-c1cc(NC(=O)C2CCCNC2)ncc1Cl (stereo not shown) [CDK inhibitor 2]
- inhibition at 10 µM (CDK8/Cyclin C; average): 58%
- inhibition at 10 µM (CDK8/Cyclin C; experiment 1): 65.9%
- inhibition at 10 µM (CDK8/Cyclin C; experiment 2): 50%
- inhibition at 10 µM (CDK3/Cyclin E1; average): 92.7%
- inhibition at 10 µM (CDK3/Cyclin E1; experiment 1): 92.3%
- inhibition at 10 µM (CDK3/Cyclin E1; experiment 2): 93%
- IC50 (CDK11A/Cyclin L2; average (± SEM where n=3)): 20 ± 10 nM
- inhibition at 10 µM (CDK11A/Cyclin L2; average): 95.4%
- IC50 (CDK11A/Cyclin L2; experiment 1): 8.3 nM
- inhibition at 10 µM (CDK11A/Cyclin L2; experiment 1): 94.8%
- IC50 (CDK11A/Cyclin L2; experiment 2): 17 nM
- inhibition at 10 µM (CDK11A/Cyclin L2; experiment 2): 95.9%
- IC50 (CDK11A/Cyclin L2; experiment 3): 47 nM
- inhibition at 10 µM (CDK19/Cyclin C; average): 72.6%
- inhibition at 10 µM (CDK19/Cyclin C; experiment 1): 75.1%
- inhibition at 10 µM (CDK19/Cyclin C; experiment 2): 70.1%
- inhibition at 10 µM (CDK6/Cyclin D1; average): 77.1%
- inhibition at 10 µM (CDK6/Cyclin D1; experiment 1): 76.2%
- inhibition at 10 µM (CDK6/Cyclin D1; experiment 2): 78%
- inhibition at 10 µM (CDK20/Cyclin H; experiment 1): 18.7%
- inhibition at 10 µM (CDK20/Cyclin H; experiment 2): 27.3%
- inhibition at 10 µM (CDK1/Cyclin E1; average): 79.7%
- inhibition at 10 µM (CDK1/Cyclin E1; experiment 1): 76.7%
- inhibition at 10 µM (CDK1/Cyclin E1; experiment 2): 82.8%
- inhibition at 10 µM (CDK5/CDK5R1; average): 40%
- inhibition at 10 µM (CDK5/CDK5R1; experiment 1): 37.7%
- inhibition at 10 µM (CDK5/CDK5R1; experiment 2): 42.4%
- IC50 (CDK10/Cyclin L2; average (± SEM where n=3)): 500 ± 200 nM
- IC50 (CDK10/Cyclin L2; experiment 1): 340 nM
- IC50 (CDK10/Cyclin L2; experiment 2): 230 nM
- IC50 (CDK10/Cyclin L2; experiment 3): 972 nM
- inhibition at 10 µM (CDK10/Cyclin L2; average): 83.1%
- inhibition at 10 µM (CDK10/Cyclin L2; experiment 1): 83.7%
- inhibition at 10 µM (CDK10/Cyclin L2; experiment 2): 82.5%
- IC50 (CDK7; average (± SEM where n=3)): 120 ± 50 nM
- inhibition at 10 µM (CDK7; average): 82.8%
- IC50 (CDK7; experiment 1): 83 nM
- inhibition at 10 µM (CDK7; experiment 1): 83.3%
- IC50 (CDK7; experiment 2): 58 nM
- inhibition at 10 µM (CDK7; experiment 2): 82.3%
- IC50 (CDK7; experiment 3): 215 nM
- IC50 (CDK9/Cyclin K; average (± SEM where n=3)): 3.5 ± 0.8 nM
- inhibition at 10 µM (CDK9/Cyclin K; average): 98.4%
- IC50 (CDK9/Cyclin K; experiment 1): 5 nM
- inhibition at 10 µM (CDK9/Cyclin K; experiment 1): 99.1%
- IC50 (CDK9/Cyclin K; experiment 2): 2.3 nM
- inhibition at 10 µM (CDK9/Cyclin K; experiment 2): 97.8%
- IC50 (CDK9/Cyclin K; experiment 3): 3 nM
- IC50 (CDK17/Cyclin Y; average (± SEM where n=3)): 90 ± 20 nM
- inhibition at 10 µM (CDK17/Cyclin Y; average): 91.6%
- IC50 (CDK17/Cyclin Y; experiment 1): 57 nM
- inhibition at 10 µM (CDK17/Cyclin Y; experiment 1): 90.5%
- IC50 (CDK17/Cyclin Y; experiment 2): 110 nM
- inhibition at 10 µM (CDK17/Cyclin Y; experiment 2): 92.6%
- IC50 (CDK17/Cyclin Y; experiment 3): 99 nM
- IC50 (CDK18/Cyclin Y; CDK18/Y, average (± SEM where n=3)): 140 ± 30 nM
- IC50 (CDK18/Cyclin Y; CDK18/Y, experiment 1): 104 nM
- inhibition at 10 µM (CDK18/Cyclin Y; CDK18/Y, experiment 1, read-out: Inhibition at 10µM (%)): 93.5%
- IC50 (CDK18/Cyclin Y; CDK18/Y, experiment 2): 210 nM
- inhibition at 10 µM (CDK18/Cyclin Y; CDK18/Y, experiment 2, read-out: Inhibition at 10µM (%)): 102%
- IC50 (CDK18/Cyclin Y; CDK18/Y, experiment 3): 112 nM
- inhibition at 10 µM (CDK18/Cyclin Y; read-out: Inhibition at 10µM (%), CDK18/Y, average): 97.8%
- IC50 (CDK16/Cyclin Y; average (± SEM where n=3)): 100 ± 30 nM
- IC50 (CDK16/Cyclin Y; experiment 1): 51 nM
- inhibition at 10 µM (CDK16/Cyclin Y; experiment 1): 89.7%
- IC50 (CDK16/Cyclin Y; experiment 2): 140 nM
- inhibition at 10 µM (CDK16/Cyclin Y; experiment 2): 90.1%
- IC50 (CDK16/Cyclin Y; experiment 3): 117 nM
- IC50 (CDK15/Cyclin Y; average (± SEM where n=3)): 540 ± 70 nM
- inhibition at 10 µM (CDK15/Cyclin Y; average): 92.4%
- IC50 (CDK15/Cyclin Y; experiment 1): 407 nM
- inhibition at 10 µM (CDK15/Cyclin Y; experiment 1): 93.4%
- IC50 (CDK15/Cyclin Y; experiment 2): 570 nM
- inhibition at 10 µM (CDK15/Cyclin Y; experiment 2): 91.4%
- IC50 (CDK15/Cyclin Y; experiment 3): 648 nM
- inhibition at 10 µM (CDK2/Cyclin E1; average): 65.6%
- inhibition at 10 µM (CDK2/Cyclin E1; experiment 1): 61.9%
- inhibition at 10 µM (CDK2/Cyclin E1; experiment 2): 69.3%
- inhibition at 10 µM (CDK4/Cyclin D1; average): 83.4%
- inhibition at 10 µM (CDK4/Cyclin D1; experiment 1): 81.2%
- inhibition at 10 µM (CDK4/Cyclin D1; experiment 2): 85.7%
- IC50 (CDK11B/Cyclin L2; average (± SEM where n=3)): 17 ± 5 nM
- inhibition at 10 µM (CDK11B/Cyclin L2; average): 95.6%
- IC50 (CDK11B/Cyclin L2; experiment 1): 9 nM
- inhibition at 10 µM (CDK11B/Cyclin L2; experiment 1): 96.5%
- IC50 (CDK11B/Cyclin L2; experiment 2): 18 nM
- inhibition at 10 µM (CDK11B/Cyclin L2; experiment 2): 94.6%
- IC50 (CDK11B/Cyclin L2; experiment 3): 25 nM
- inhibition at 10 µM (CDK14/Cyclin Y; average): 86.5%
- inhibition at 10 µM (CDK14/Cyclin Y; experiment 1): 89.6%
- inhibition at 10 µM (CDK14/Cyclin Y; experiment 2): 83.5%
